Test results as given in ChEMBL document CHEMBL1201862, “PubChem BioAssay data set” (2004).
Active and inactive are the calls of the source.

Legend:
HEK293 [1] = assay: inhibition of NOD1-driven NF-kB reporter – cell-based, luminescence, uHTS, primary screen (AID 1578); type: functional; conditions: Homo sapiens
HEK293 [2] = assay: cells; type: functional, cell-based; conditions: Homo sapiens
HEK293 [3] = assay: cells; type: functional, cell-based; conditions: Homo sapiens; remark: listed apart in the source
[4] = target: Nucleotide-binding oligomerization domain-containing protein 2 (Homo sapiens, UniProt Q9HC29); assay: inhibition of NOD2-driven NF-kB reporter – cell-based, luminescence, uHTS, HEK293 (AID 1566); type: functional
HEK293 [5] = assay: NOD2 signaling inhibitors in MDP-stimulated cells, cell-based, uHTS, luminescence (AID 2001); type: functional; conditions: Homo sapiens
HEK293 [6] = assay: cells; type: functional, cell-based; conditions: Homo sapiens; remark: listed apart in the source
[7] = target: T1, Heat shock factor protein 1 (Mus musculus, UniProt P38532); assay: enhancement of HSF1-driven luciferase signal – cell-based, NIH3T3, luminescence, dose retest, confirmation (AID 435004); type: functional;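 note: stress induced by proteasome inhibitor MG132 added 30 min after compound; luciferase reporter driven by HSF1 response element in NIH3T3 cells; actives raise luminescence as potentiators of the MG132 stress response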
T1 sequence (P38532 whole entry): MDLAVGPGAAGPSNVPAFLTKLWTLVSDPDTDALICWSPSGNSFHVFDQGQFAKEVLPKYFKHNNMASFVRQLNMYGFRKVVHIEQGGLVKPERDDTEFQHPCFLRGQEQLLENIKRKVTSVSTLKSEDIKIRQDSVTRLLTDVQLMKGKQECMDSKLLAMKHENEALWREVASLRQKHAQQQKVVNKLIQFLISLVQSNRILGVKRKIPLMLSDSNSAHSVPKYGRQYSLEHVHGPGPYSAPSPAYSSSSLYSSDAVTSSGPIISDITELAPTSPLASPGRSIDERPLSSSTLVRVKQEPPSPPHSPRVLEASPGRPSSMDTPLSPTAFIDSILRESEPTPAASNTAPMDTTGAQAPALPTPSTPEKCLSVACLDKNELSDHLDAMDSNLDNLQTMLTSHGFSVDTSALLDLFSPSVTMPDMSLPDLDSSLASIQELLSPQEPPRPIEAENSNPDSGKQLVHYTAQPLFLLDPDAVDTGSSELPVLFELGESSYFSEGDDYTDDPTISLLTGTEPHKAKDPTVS

[8] = target: Aryl hydrocarbon receptor (Homo sapiens, UniProt P35869); assay: Luminescence-based cell-based high throughput dose response assay for activators of the Aryl Hydrocarbon Receptor (AHR). [Related pubchem assays: 2796 (Primary screen (AHR activators in singlicate)), 2845 (Confirmation screen (AHR activators in triplicate)), 434939 (Counterscreen (PXR activators in triplicate)), 2804 (Summary (AHR activators))]; type: ADME
[9] = target: Eukaryotic translation initiation factor 4E (Mus musculus, UniProt P63073); assay: blockers of eIF4G binding by eIF4E – biochemical, TR-FRET, dose response (AID 855); type: functional;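 note: potency for disrupting eIF4E binding to eIF4GI seen as loss of FRET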
Caspase-3 = target: T2, Caspase-3 (Homo sapiens, UniProt P42574); assay: activation of caspase-3 zymogen – biochemical, absorbance, dose response (AID 489014)
T2 sequence (P42574 whole entry): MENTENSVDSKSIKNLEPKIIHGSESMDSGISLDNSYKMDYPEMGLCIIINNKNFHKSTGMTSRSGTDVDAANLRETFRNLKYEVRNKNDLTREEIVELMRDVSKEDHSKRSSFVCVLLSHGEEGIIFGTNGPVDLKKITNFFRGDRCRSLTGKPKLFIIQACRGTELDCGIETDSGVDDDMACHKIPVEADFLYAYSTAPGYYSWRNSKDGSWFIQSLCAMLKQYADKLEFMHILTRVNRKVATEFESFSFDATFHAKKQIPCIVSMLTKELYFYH

Caspase-7 = Caspase-7 (Homo sapiens, UniProt P55210); assay: activation of caspase-7 zymogen – biochemical, absorbance, counter-screen for procaspase-3 activator project, dose response (AID 489013)
[10] = luciferase reporter signal suppression in cells – H4 neuroglioma cells, luminescence, dose response (AID 1990); type: functional, cell-based
[11] = Luminescence Cell-Based Dose Response HTS to Identify Inhibitors of 5'UTR Stem-Loop Driven Prion Protein mRNA Translation in H4 Neuroglioblastoma Cells. [Related pubchem assays: 1827 (Project Summary), 1813 (Primary HTS)]; type: functional
[12] = alpha-synuclein stem-loop luciferase translation blockers – H4 neuroglioma cells, luminescence, confirmation (AID 1988); type: functional, cell-based
Exodeoxyribonuclease V = target: T3, Exodeoxyribonuclease V (Escherichia coli (strain K12), UniProt P04993+P07648+P08394); assay: RecBCD inhibition via phage-restricted bacterial growth – absorbance, V66 E. coli, mutant T4 phage, counter-screen for AddAB inhibitor project, dose response (AID 492957); type: functional, cell-based, Escherichia coli str. K-12 substr. MG1655
T3 sequence (P04993 whole entry): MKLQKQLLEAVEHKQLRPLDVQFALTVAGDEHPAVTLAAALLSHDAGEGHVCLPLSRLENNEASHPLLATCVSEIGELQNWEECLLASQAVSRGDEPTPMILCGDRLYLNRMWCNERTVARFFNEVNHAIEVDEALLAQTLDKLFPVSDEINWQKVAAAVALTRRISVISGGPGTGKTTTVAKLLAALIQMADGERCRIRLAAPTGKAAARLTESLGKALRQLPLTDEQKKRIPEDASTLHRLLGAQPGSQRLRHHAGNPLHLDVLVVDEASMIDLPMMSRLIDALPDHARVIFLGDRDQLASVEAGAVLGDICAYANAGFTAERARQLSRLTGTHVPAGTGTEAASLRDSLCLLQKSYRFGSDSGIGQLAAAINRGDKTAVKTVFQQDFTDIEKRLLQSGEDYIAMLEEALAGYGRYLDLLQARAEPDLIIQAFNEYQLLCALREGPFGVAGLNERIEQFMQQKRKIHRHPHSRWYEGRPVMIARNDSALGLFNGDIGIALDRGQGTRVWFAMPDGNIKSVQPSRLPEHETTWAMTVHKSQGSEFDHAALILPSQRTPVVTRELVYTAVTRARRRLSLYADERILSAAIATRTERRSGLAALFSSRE
T3 sequence (P07648 whole entry): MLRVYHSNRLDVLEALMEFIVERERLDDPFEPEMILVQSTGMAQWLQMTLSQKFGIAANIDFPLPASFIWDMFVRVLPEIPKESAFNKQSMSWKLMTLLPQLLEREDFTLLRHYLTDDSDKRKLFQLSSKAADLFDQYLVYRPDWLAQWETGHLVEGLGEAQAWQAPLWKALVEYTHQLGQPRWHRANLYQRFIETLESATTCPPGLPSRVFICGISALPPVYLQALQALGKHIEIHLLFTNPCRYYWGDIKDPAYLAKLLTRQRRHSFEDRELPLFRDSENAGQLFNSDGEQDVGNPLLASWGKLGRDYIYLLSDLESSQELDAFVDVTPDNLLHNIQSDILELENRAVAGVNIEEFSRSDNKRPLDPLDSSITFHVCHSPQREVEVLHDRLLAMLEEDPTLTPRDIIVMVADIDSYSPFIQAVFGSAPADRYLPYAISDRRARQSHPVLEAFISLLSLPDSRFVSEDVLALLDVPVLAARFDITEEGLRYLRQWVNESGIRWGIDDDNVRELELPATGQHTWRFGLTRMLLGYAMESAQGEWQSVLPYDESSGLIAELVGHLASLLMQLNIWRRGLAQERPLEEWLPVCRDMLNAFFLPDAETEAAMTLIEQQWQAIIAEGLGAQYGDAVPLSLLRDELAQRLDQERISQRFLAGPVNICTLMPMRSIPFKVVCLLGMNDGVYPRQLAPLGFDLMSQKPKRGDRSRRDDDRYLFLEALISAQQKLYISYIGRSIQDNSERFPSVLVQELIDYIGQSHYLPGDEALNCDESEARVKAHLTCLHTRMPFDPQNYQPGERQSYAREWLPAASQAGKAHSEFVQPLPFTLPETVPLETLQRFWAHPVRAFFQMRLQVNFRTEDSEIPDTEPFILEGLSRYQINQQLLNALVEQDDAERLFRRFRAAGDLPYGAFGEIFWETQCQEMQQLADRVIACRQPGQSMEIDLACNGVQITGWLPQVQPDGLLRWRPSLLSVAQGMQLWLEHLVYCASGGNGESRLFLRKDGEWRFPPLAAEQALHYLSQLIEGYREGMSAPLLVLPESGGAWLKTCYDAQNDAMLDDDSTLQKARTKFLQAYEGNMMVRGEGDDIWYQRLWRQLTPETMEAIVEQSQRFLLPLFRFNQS
T3 sequence (P08394 whole entry): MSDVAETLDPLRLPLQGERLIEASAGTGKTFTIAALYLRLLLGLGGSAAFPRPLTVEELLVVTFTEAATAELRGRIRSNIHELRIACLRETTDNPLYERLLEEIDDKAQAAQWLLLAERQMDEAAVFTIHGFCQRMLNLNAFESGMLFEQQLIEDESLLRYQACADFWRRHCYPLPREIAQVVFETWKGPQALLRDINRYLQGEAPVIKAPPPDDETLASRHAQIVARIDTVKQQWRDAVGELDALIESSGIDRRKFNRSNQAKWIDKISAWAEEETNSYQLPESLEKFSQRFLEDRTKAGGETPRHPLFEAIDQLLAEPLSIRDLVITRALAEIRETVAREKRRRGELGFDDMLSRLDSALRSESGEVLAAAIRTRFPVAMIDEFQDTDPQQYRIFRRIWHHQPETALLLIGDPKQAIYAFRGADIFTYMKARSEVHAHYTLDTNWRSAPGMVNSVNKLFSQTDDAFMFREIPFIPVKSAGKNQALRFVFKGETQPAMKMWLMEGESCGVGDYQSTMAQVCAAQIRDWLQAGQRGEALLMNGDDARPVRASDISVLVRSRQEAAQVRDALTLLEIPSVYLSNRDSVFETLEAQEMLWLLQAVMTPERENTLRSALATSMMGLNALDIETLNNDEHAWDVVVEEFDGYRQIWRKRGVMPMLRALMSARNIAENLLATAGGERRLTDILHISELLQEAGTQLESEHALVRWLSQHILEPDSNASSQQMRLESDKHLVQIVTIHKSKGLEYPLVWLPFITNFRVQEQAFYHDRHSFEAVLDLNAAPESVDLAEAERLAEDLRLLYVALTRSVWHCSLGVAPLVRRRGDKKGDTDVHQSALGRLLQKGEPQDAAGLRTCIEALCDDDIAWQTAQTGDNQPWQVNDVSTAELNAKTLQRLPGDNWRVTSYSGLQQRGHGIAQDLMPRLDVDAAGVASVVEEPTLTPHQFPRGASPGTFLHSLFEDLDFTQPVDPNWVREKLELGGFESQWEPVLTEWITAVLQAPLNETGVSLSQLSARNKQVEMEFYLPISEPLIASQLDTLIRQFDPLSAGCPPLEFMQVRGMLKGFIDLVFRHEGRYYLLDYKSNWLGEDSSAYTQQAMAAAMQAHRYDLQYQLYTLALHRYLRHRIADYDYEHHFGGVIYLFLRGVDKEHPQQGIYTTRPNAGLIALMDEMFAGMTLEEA

[13] = Counterscreen for AddAB inhibitors: absorbance-based bacterial cell-based high throughput dose response assay for inhibitors of bacterial viability. [Related pubchem assays (depositor defined):AID435030, AID449728, AID449731, AID488942, AID488955, AID488956]; type: functional
INS1 = assay: INS-1E survival protection against cytokine death – cell-based, luminescence, retest, dose response (AID 449756); type: functional; conditions: Rattus norvegicus;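 note: cell death triggered by IL-1 beta plus TNF-alpha plus IFN-gamma mixture; protective hits raise ATP signal compared with cytokine alone wells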
H9c2 = assay: cells; type: functional, cell-based; conditions: Rattus norvegicus, H9c2, Myocardium;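 note: confirmatory concentration-response retest of ultra-high-throughput screening hits for modulation of myocardial damage; cell death induced by hydrogen peroxide oxidative stress; compound pretreatment for 60 min then peroxide exposure for 2 h; potency is for protecting the cells against peroxide damage rather than for killing them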
[14] = target: T4, Neuropeptides B/W receptor type 1 (Homo sapiens, UniProt P48145); assay: human NPBW1 receptor blockade, IC50 – cell-based, fluorescence, dose response, late-stage follow-up (AID 463251); type: functional
T4 sequence (P48145 whole entry): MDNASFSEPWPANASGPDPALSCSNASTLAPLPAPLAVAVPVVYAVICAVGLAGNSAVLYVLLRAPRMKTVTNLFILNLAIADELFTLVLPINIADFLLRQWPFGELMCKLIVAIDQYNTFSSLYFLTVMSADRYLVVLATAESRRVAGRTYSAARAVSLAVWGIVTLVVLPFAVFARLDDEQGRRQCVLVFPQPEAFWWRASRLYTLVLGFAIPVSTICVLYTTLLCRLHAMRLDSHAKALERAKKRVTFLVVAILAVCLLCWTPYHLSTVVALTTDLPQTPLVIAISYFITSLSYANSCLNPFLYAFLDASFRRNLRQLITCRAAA

[15] = target: Melanin-concentrating hormone receptor 1 (Homo sapiens, UniProt Q99705); assay: Late-stage fluorescence-based counterscreen for antagonists of the G-protein coupled receptor 7 (GPR7): cell-based dose response assay to identify antagonists of the melanin-concentrating hormone receptor 1 (MCHR1). [Related pubchem assays (depositor defined):AID1861, AID1880, AID1952, AID2148, AID2251, AID2257, AID485339]; type: functional;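 note: stimulated with 30 nM MCH peptide agonist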
Sequence of Melanin-concentrating hormone receptor 1 (Q99705 whole entry): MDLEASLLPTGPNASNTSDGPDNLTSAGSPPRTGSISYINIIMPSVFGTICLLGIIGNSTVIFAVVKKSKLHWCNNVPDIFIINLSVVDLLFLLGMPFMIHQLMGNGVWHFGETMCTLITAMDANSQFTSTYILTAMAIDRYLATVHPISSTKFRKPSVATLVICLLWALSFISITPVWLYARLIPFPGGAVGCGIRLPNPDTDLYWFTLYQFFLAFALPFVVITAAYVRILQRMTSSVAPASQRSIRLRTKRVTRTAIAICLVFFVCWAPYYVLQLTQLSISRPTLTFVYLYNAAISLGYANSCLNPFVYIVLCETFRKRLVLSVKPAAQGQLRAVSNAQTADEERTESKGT

Sequence of Caspase-7 (P55210 24-198 limits assumed): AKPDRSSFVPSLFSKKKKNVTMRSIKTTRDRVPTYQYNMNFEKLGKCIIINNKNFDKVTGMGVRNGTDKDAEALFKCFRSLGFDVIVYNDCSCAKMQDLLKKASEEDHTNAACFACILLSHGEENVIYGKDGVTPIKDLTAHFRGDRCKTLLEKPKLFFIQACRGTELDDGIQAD
Sequence of Caspase-7 (P55210 207-303 limits assumed): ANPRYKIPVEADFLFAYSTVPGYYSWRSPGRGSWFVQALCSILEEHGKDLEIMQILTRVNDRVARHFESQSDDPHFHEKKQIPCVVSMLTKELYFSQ
Sequence of Aryl hydrocarbon receptor (P35869 whole entry): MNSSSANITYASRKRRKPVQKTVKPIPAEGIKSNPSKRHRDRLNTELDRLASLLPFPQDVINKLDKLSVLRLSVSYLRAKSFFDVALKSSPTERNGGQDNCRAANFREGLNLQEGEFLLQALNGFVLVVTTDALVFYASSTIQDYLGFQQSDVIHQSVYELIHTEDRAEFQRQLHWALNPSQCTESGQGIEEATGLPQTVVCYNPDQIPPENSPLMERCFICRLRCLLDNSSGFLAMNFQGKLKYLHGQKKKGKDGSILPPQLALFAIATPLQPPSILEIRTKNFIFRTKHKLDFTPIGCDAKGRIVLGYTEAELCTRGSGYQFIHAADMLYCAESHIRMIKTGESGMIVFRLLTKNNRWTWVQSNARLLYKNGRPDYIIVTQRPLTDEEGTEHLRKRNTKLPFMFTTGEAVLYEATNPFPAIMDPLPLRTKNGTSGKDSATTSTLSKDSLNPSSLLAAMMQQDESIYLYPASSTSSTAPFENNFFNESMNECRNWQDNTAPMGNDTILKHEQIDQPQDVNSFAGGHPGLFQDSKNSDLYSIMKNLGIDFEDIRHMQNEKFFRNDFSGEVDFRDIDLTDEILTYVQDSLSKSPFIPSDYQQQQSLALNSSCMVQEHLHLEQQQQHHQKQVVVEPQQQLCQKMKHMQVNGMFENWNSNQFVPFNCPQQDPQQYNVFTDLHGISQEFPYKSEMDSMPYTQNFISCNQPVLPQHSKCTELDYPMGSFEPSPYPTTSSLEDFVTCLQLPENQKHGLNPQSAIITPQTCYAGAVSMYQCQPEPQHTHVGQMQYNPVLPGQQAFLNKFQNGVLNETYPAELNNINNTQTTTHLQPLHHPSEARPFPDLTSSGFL
Sequence of Nucleotide-binding oligomerization domain-containing protein 2 (Q9HC29 whole entry, the tested form may be a part): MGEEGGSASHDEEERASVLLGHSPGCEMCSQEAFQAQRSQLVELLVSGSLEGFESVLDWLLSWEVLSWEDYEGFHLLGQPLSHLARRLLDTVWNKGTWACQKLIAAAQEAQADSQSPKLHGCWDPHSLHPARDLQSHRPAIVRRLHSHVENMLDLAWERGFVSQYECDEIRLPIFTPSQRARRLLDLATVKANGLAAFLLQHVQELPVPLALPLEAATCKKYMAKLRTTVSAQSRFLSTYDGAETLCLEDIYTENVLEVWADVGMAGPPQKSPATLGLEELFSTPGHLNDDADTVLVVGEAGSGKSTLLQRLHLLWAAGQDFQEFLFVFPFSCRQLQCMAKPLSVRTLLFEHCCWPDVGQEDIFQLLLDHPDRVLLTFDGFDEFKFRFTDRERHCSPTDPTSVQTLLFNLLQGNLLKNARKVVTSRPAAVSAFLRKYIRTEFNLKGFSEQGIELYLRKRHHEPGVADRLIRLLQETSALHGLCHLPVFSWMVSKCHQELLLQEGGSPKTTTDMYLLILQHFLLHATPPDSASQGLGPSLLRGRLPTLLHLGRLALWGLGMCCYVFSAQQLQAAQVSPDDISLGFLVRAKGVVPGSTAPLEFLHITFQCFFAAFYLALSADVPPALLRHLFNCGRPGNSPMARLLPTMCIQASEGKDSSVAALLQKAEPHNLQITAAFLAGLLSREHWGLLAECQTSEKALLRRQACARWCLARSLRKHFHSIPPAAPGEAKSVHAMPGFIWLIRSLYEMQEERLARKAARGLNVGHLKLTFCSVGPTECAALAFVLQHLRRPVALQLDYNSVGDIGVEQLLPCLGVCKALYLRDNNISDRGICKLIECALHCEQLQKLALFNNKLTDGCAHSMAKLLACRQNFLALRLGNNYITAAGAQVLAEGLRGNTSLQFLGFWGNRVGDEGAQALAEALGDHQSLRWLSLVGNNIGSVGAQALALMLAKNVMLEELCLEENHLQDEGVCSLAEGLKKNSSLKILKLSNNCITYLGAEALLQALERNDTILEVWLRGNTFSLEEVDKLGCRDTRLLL
Sequence of Eukaryotic translation initiation factor 4E (P63073 whole entry): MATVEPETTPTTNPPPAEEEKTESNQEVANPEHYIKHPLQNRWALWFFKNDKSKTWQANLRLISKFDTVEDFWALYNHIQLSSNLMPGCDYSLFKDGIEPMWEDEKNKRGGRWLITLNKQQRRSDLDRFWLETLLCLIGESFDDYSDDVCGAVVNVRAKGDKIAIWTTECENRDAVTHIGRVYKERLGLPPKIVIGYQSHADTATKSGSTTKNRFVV

CCc1ccc(CN(C)C(=O)CCc2nc3ccccc3n(-c3ccc(OC)cc3)c2=O)cc1
EC50 (HEK293 [1]): 12.7 µM (active) | IC50 (HEK293 [2]): > 20 µM (inactive) | IC50 (HEK293 [3]): > 20 µM (inactive) | EC50 [4]: 16 µM (active) | IC50 (HEK293 [5]): 5.96 µM (active) | IC50 (HEK293 [6]): > 20 µM (inactive) | EC50 [7]: > 260 µM (inactive)

O=C(N/N=C/c1c[nH]c2ccccc12)C1COc2ccccc2O1 (stereo not drawn)
EC50 [8]: 5.67 µM (active) | IC50 [9]: > 64 µM (inactive)

Cc1ccc(-c2cc(C(F)(F)F)c(C#N)c(SCCC#N)n2)o1
EC50 (Caspase-3): > 85.2 µM (inactive) | EC50 (Caspase-7): > 85.2 µM (inactive)

CCCNC(=O)c1ccc2c(O)c(O)c(-c3ccc(C)cc3)nc2c1
EC50 [10]: 9.71 µM (active) | EC50 [11]: > 120 µM (not active) | EC50 [12]: 8.86 µM (active) | IC50 (Exodeoxyribonuclease V): > 119 µM (inactive) | EC50 (Caspase-3): > 85.3 µM (inactive) | EC50 (Caspase-7): > 85.3 µM (inactive) | IC50 [13]: > 119 µM (inactive) | AC50 (INS1): 7.24 µM (active) | IC50 (H9c2): > 79 µM (inactive)

CCOc1ccc(COc2c(Cl)cnn(-c3ccc(C)cc3)c2=O)cc1OCC
IC50 [14]: > 20 µM (inactive)

COc1cc(F)ccc1Oc1c(Cl)cnn(-c2ccc(C)cc2)c1=O
IC50 [15]: 9.5 µM (active) | IC50 [14]: 9.7 µM (active)
